Experimental data taken from the supplement of paper PMC10307832.

Tests used:
Experiment in all cases: relative viability (nuclei count vs DMSO), 5 days (fraction); higher = more cells survive
[1] = compound: CC1=C(CC(=O)O)c2cc(F)ccc2/C1=C\c1ccc([S+](C)[O-])cc1 [Sulindac] + NC(=O)Nc1cc(-c2cccc(F)c2)sc1C(=O)N[C@H]1CCCNC1 [AZD7762] (partner 0.2 µM)
How it was run: (§1)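 Each reported value is a median over duplicate plates. It expresses relative viability: treated-well nuclei count divided by vehicle-well nuclei count. Lung cancer cell lines in 1536-well plates were dosed by pin tool a day after seeding, alone with one drug or with a fixed anchor-drug dose plus five library-drug doses (not always all listed) in √10 steps, and nuclei were counted after 5 days.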

[2] = compound: CN[C@@H]1C[C@H]2O[C@@](C)([C@@H]1OC)n1c3ccccc3c3c4c(c5c6ccccc6n2c5c31)C(=O)NC4 [Staurosporine] + CC(=O)c1c(C)c2cnc(Nc3ccc(N4CCNCC4)cn3)nc2n(C2CCCC2)c1=O [Palbociclib] (partner 0.5 µM)
How it was run: as §1

[3] = compound: CN[C@@H]1C[C@H]2O[C@@](C)([C@@H]1OC)n1c3ccccc3c3c4c(c5c6ccccc6n2c5c31)C(=O)NC4 [Staurosporine] + C[C@]1(O)C[C@@H](c2nc(-c3ccc4ccc(-c5ccccc5)nc4c3)c3c(N)nccn32)C1 [Linsitinib] (partner 1 µM)
How it was run: as §1

[4] = compound: CN[C@@H]1C[C@H]2O[C@@](C)([C@@H]1OC)n1c3ccccc3c3c4c(c5c6ccccc6n2c5c31)C(=O)NC4 [Staurosporine] + Cc1cc(Nc2cc(N3CCN(C)CC3)nc(Sc3ccc(NC(=O)C4CC4)cc3)n2)n[nH]1 [Tozasertib] (partner 0.1 µM)
How it was run: as §1

Cell Line	relative viability ([1]; first compound 0.08 µM)	relative viability ([1]; first compound 0.253 µM)	relative viability ([1]; first compound 0.8 µM)	relative viability ([1]; first compound 2.53 µM)	relative viability ([1]; first compound 8 µM)	relative viability ([2]; first compound 0.005 µM)	relative viability ([2]; first compound 0.05 µM)	relative viability ([2]; first compound 0.1581 µM)	relative viability ([2]; first compound 0.5 µM)	relative viability ([3]; first compound 0.005 µM)	relative viability ([3]; first compound 0.01581 µM)	relative viability ([3]; first compound 0.05 µM)	relative viability ([3]; first compound 0.1581 µM)	relative viability ([3]; first compound 0.5 µM)	relative viability ([4]; first compound 0.005 µM)	relative viability ([4]; first compound 0.05 µM)	relative viability ([4]; first compound 0.1581 µM)	relative viability ([4]; first compound 0.5 µM)	relative viability ([2]; first compound 0.01581 µM)	relative viability ([4]; first compound 0.01581 µM)
201T	0.647	0.628	0.868	0.661	0.596	0.362	0.329	0.274	0.285	1.02	1	0.814	0.688	0.575	1.06	0.758	0.373	0.31		
A549										0.366	0.227	0.0839	0.0873	0.0598						
A-427	0.742	0.692	1.01	0.727	0.808	0.509	0.346	0.246	0.193	1.05		0.43	0.313	0.189	0.171	0.1	0.104	0.0934	0.425	0.113
ABC-1	1.16		0.636	0.682	0.751		0.226	0.258	0.193	0.195	0.209	0.145	0.108	0.0957	0.134	0.125	0.111	0.111	0.224	0.104
BEN	0.728	0.727	0.598	0.604	0.776	0.553	0.397	0.446	0.295	1.23	0.923	0.436	0.52	0.245	0.587	0.484	0.434	0.325	0.478	0.743
CAL-12T	0.586	0.717	0.497	0.622	0.708	0.196	0.107	0.142	0.122	0.57	0.334	0.213	0.136	0.115	0.146	0.101	0.132	0.0975	0.138	0.117
COR-L23						0.218	0.117	0.103	0.0791	0.534	0.27	0.134	0.0552	0.041	0.102	0.0926	0.0869	0.0647	0.109	0.112
COR-L 105						0.365	0.313	0.282	0.246	0.561	0.353	0.246	0.261	0.213	0.253	0.245	0.237	0.229	0.334	0.26
Calu-6										0.92	0.776	0.3	0.0858	0.0592						
ChaGo-K-1	0.949	0.878	0.803	0.932	0.906	0.886	0.811	0.696	0.701						0.202	0.162	0.145	0.157		0.181
EBC-1										0.738	0.523	0.181	0.122	0.111						
EKVX	0.755	0.902	0.571	0.763	0.809	0.266	0.152	0.168	0.0893	0.624	0.357	0.22	0.183	0.109	0.346	0.17	0.165	0.134	0.143	0.213
EMC-BAC-2	1.22	1.2	0.849	1.04	1.35	0.383	0.213	0.228	0.207	0.457	0.394	0.122	0.152	0.133	0.181	0.19	0.192	0.181	0.242	0.138
EPLC-272H	0.432		0.53	0.155	0.263	0.3	0.193	0.157	0.0846	1.17	0.732	0.352	0.25	0.234	0.381	0.147	0.104	0.108	0.275	0.17
H3255	0.884	0.931	0.627	0.867	1.11	0.275	0.24	0.181	0.178	0.814	0.549	0.303	0.226	0.116	0.504	0.203	0.239	0.145	0.24	0.337
HARA	0.339	0.392	0.288	0.294	0.307	0.268	0.206	0.177	0.118	0.762	0.192	0.155	0.0968	0.0872	0.102	0.0638	0.0719	0.0716	0.236	
HCC-15	1.11	1.44	0.883	1.23	1.16	0.527	0.503	0.275	0.229	0.921		0.656	0.444	0.276	0.379	0.166	0.0982	0.0697		
HCC-44	1.04	1.01	1.09	0.979	0.942		0.768	0.53	0.41	0.328	0.194	0.101	0.111	0.0981	0.426	0.168	0.135	0.112		0.136
HCC-78	0.614	0.6	0.557	0.599	0.722	0.502	0.462	0.472	0.464	0.613	0.457	0.363	0.295	0.268	0.545	0.424	0.429	0.258	0.469	0.287
HCC-366	0.284	0.257		0.359	0.265	0.297	0.113	0.0357	0.0204	0.623		0.0843	0.0298	0.013	0.144	0.0425	0.0279	0.0464		
HCC-827	0.218	0.222	0.198	0.204	0.244	0.59	0.299	0.226	0.225	0.992	0.853	0.726	0.769	0.624	0.442	0.358	0.329	0.263	0.401	0.313
HOP-62	0.577	0.565	0.556	0.717	0.953	0.334	0.116	0.106	0.0933	1.07	0.604	0.117	0.111	0.108	0.349	0.114	0.128	0.103	0.194	0.237

Cell Line	relative viability ([1]; first compound 0.08 µM)	relative viability ([1]; first compound 0.253 µM)	relative viability ([1]; first compound 0.8 µM)	relative viability ([1]; first compound 2.53 µM)	relative viability ([1]; first compound 8 µM)	relative viability ([2]; first compound 0.005 µM)	relative viability ([2]; first compound 0.05 µM)	relative viability ([2]; first compound 0.1581 µM)	relative viability ([2]; first compound 0.5 µM)	relative viability ([3]; first compound 0.005 µM)	relative viability ([3]; first compound 0.01581 µM)	relative viability ([3]; first compound 0.05 µM)	relative viability ([3]; first compound 0.1581 µM)	relative viability ([3]; first compound 0.5 µM)	relative viability ([4]; first compound 0.005 µM)	relative viability ([4]; first compound 0.05 µM)	relative viability ([4]; first compound 0.1581 µM)	relative viability ([4]; first compound 0.5 µM)	relative viability ([2]; first compound 0.01581 µM)	relative viability ([4]; first compound 0.01581 µM)
IA-LM											0.271	0.16	0.128	0.07						
NCI-H520						0.272	0.159	0.116	0.12	1.05	0.824	0.604	0.213	0.128	0.57	0.423	0.366	0.303	0.262	0.473
NCI-H522	0.753	0.921	0.962	0.693	0.657	1.19		0.638	0.502						0.541	0.492	0.433	0.486	0.877	
NCI-H596	1.06	1.16		1.23	1.27					1.34	0.854	0.854	0.385	0.148	1.02	0.572	0.36	0.288		0.735
NCI-H661						0.418	0.329	0.26	0.192	0.458	0.384	0.258	0.245	0.226	0.392	0.401	0.335	0.238	0.337	0.445
NCI-H1299										0.785	0.305	0.206	0.143	0.113						
NCI-H1563										0.752	0.611	0.733	0.654	0.478						
NCI-H1623															0.491	0.406	0.425	0.277		0.495
NCI-H1648	0.682	0.746		0.7	0.768	0.23	0.249	0.279	0.258						0.236	0.169	0.214	0.243	0.227	0.185
NCI-H1650						0.238	0.147	0.118	0.0769						0.332	0.17	0.203	0.123	0.138	0.302
NCI-H1703	0.129	0.14		0.111	0.17					0.561	0.291	0.17	0.146	0.083						
NCI-H1792	0.98	0.647		0.766	0.703	0.614	0.323	0.274	0.26	0.488	0.287	0.105	0.114	0.0997					0.577	
NCI-H2009						0.147	0.13	0.0987	0.0664	0.681	0.269	0.216	0.18	0.116	0.295	0.176	0.19	0.0978	0.159	0.312
NCI-H2023						0.234	0.0972	0.0704	0.0509	0.419	0.17	0.197	0.122	0.0751	0.202	0.0713	0.0971	0.0603	0.186	0.21
NCI-H2170	1.06	0.91	0.765	1.01	0.884	0.43	0.314	0.218	0.176						0.756	0.429	0.181	0.181		
NCI-H2228						0.209	0.3	0.102	0.0805	0.608	0.483	0.141	0.183	0.113	0.251	0.109	0.115	0.124	0.215	0.201
NCI-H2342	0.76	0.495	0.441	0.491	0.5	0.507	0.488	0.433	0.344						0.406	0.295	0.305	0.278	0.51	0.495
SK-LU-1						0.326	0.166	0.164	0.161	0.313	0.263	0.205	0.2	0.145	0.168		0.133	0.0818	0.186	0.115
SK-MES-1						0.235	0.193	0.163	0.147	0.836	0.403	0.318	0.267	0.153	0.52	0.149	0.125	0.125	0.232	0.327
SW 900	0.538	0.677			0.643	0.376	0.278	0.201	0.18						0.541	0.246	0.206	0.162	0.359	0.239
SW 1573						0.172	0.131	0.0619	0.081	0.586	0.449	0.144	0.131	0.107	0.153	0.119	0.0873	0.069	0.113	0.186
